The values below come from ChEMBL document CHEMBL5131570, “Discovery of Potent Small-Molecule USP8 Inhibitors for the Treatment of Breast Cancer through Regulating ERα Expression” (J Med Chem, 2022).

The target in data set [1] is T1, Ubiquitin carboxyl-terminal hydrolase 8 (Homo sapiens, UniProt P40818).
T1 sequence (P40818 whole entry): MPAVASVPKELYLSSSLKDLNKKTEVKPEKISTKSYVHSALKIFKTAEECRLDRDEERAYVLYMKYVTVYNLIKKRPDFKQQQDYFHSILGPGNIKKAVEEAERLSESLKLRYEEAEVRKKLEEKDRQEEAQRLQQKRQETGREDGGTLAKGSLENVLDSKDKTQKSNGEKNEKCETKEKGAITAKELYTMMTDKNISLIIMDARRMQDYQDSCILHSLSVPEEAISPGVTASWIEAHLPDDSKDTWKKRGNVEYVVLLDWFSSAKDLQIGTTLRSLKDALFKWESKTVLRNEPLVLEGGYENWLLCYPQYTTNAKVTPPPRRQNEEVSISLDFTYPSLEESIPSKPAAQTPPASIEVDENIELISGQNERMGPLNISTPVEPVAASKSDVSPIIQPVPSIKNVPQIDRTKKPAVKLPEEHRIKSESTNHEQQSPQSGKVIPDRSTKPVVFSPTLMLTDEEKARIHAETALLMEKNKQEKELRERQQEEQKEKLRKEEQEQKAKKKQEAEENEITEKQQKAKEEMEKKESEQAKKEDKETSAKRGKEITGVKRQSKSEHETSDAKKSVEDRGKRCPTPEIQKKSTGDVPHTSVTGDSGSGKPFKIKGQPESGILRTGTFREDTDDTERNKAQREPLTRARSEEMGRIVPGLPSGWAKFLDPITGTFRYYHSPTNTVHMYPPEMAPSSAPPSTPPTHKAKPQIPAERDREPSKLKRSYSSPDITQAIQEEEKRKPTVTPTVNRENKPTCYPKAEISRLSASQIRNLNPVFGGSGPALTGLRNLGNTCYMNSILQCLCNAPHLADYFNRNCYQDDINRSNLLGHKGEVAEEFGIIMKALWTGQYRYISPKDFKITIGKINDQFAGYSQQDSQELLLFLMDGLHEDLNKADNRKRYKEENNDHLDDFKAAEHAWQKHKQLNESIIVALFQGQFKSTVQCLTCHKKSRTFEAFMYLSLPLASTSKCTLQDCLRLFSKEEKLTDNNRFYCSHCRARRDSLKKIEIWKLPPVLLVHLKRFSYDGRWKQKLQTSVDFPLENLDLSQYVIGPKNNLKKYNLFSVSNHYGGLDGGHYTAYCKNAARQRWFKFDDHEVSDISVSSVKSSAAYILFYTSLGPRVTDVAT
Description: Inhibition of N-terminal His6-tagged USP8 (unknown origin) catalytic domain (734 to 1110 residues) expressed in Escherichia coli BL21 (DE3) cells assessed as deubiquitinating activity using ubiquitin-rhodamine -110 as substrate incubated for 30 mins followed by substrate addition measured after 30 mins by ubiquitin-rhodamine-110 based fluorometric assay.

Data set [2] deals with T2, Ubiquitin carboxyl-terminal hydrolase 8 (Homo sapiens) (UniProt P40818).
T2 sequence (whole entry): T1 sequence (P40818 whole entry)
In words: Binding affinity to N-terminal His6-tagged USP8 catalytic domain (734 to 1110 residues) (unknown origin) expressed in Escherichia coli BL21 (DE3) cells using K63-linked di-ubiquitin as substrate by di-ubiquitin cleavage assay.

Data set [3] addresses T3, Ubiquitin carboxyl-terminal hydrolase 2 (Homo sapiens, UniProt O75604).
T3 sequence (O75604 whole entry): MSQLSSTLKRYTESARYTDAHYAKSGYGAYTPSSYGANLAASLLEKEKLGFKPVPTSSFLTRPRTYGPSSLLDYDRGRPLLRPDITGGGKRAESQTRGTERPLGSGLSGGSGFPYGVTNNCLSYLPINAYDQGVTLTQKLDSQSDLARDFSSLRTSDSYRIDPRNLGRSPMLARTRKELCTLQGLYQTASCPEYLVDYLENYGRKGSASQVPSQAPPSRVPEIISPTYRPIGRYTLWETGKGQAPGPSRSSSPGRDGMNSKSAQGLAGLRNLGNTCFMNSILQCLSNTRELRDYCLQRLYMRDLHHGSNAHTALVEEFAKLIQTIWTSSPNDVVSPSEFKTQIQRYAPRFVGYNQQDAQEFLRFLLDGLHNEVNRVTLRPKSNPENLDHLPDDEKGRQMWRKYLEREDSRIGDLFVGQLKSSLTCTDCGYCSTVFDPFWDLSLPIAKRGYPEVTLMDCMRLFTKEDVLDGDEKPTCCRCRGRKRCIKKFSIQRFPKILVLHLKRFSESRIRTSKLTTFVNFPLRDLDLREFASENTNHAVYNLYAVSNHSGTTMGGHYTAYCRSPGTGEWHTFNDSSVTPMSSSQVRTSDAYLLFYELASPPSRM
In words: Inhibition of USP2 (267 to 599 residues) (unknown origin) catalytic domain expressed in Escherichia coli BL21 (DE3) cells using ubiquitin-rhodamine -110 as substrate incubated for 30 mins followed by substrate addition measured after 30 mins by ubiquitin-rhodamine-110 based fluorometric assay.

The subject of data set [4] is MCF7. Description: Antiproliferative activity against human MCF7 cells assessed as reduction in colony formation at 3 uM incubated for 7 days by crystal violet staining based colony formation assay. The format is functional, cell-based. Conditions: time 7.0 day.
Data set [5] has as its system MCF7. In words: Induction of apoptosis in human MCF7 cells assessed as increase in apoptotic cells at 0.5 uM incubated for 12 hrs by AnnexinV-FITC/propidium iodide staining based flow cytometry relative to control (reference value: 2.00 %). Type of data set: functional.
Data set [6] deals with MCF7. In words: Induction of apoptosis in human MCF7 cells assessed as reduction in EGFR expression level up to 5 uM incubated for 24 hrs by Western blotting analysis. Type of data set: functional, cell-based. On the technique in general: Immunoblotting shows a protein as a band on a membrane.
Data set [7] deals with MCF7. Description: Induction of apoptosis in human MCF7 cells assessed as reduction in ErbB3 expression level up to 5 uM incubated for 24 hrs by Western blotting analysis. The format is functional, cell-based.
Data set [8] concerns MCF7. Description: Downregulation of progesterone receptor expression in human MCF7 cells assessed as protein stability by measuring reduction in half life measured up to 24 hrs in presence of cycloheximide by Western blotting analysis. The format is functional, cell-based.
In data set [9] the test system is MCF7. Description: Antitumor activity against human MCF7 cells xenografted in BALB/c mouse assessed as reduction of ErbB2 phosphorylation in tumor tissue at 5 to 20 mg/kg, ip administered via gavage every other day for 14 days by immunohistochemistry analysis. Type of data set: functional, organism-based. Conditions: dose 5-20 mg/kg, time 14.0 day. For orientation: Xenograft models place foreign cells or tissue in a host animal.

Data set [10] has as its system MCF7. In words: Antitumor activity against human MCF7 cells xenografted in BALB/c mouse assessed as reduction of ERalpha phosphorylation in tumor tissue at 5 to 20 mg/kg, ip administered via gavage every other day for 14 days by immunohistochemistry analysis. Type of data set: functional, organism-based. The following applies: dose 5-20 mg/kg, time 14.0 day.
Data set [11] is described as follows: Toxicity in BALB/c mouse xenografted with human MCF7 cells assessed as effect on liver at 5 to 20 mg/kg, […] every other day measured after 14 days by hematoxylin and eosin staining based analysis. The format is organism-based. The following applies: in vivo, 336 h, dose 5-20 mg/kg, time 14 day.
Data set [12] in a line: Toxicity in BALB/c mouse xenografted with human MCF7 cells assessed as effect on lung at 5 to 20 mg/kg, […] every other day measured after 14 days by hematoxylin and eosin staining based analysis. The format is organism-based. Conditions: in vivo, 336 h, dose 5-20 mg/kg, time 14 day.
Data set [13] is described as follows: Toxicity in BALB/c mouse xenografted with human MCF7 cells assessed as effect on aspartate aminotransferase level at 5 to 20 mg/kg, […] every other day measured after 14 days. The format is organism-based. The following applies: in vivo, 336 h, dose 5-20 mg/kg, time 14 day.

pIC50: −log10 of the molar value. Calls of active or inactive are those of the source. The rule behind the calls is not given here.

`Cc1n[nH]c(C)c1Oc1c(O)cc(O)c2c(=O)cc(-c3ccc(N4CCN(c5ccccn5)CC4)cc3)oc12`: the figures for the pIC50 in data set [1] and in data set [3] were 5.92 and 4.30, respectively. In addition, the result (in data set [2]; with MCF7 [4]; in the data set with MCF7 [6]; with MCF7 [7]; in the data set on MCF7 [8]; with MCF7 [9]) was Active. Besides, the result with MCF7 [10] was Active. Moreover, the Activity in the data set on MCF7 [5] is recorded as 2.5%; in data set [11], “Non-Toxic”; in data set [12] it was “Non-Toxic”; in data set [13], “Non-Toxic”.
